Experimental findings from ChEMBL document CHEMBL5537137, “Design, synthesis and biological evaluation of biaryl amide derivatives against SARS-CoV-2 with dual-target mechanism” (Eur J Med Chem, 2024) are described below.

A short description of data set [1]: Cytotoxicity against human NCI-H460 cells incubated for 72 hrs by CCK-8 assay. For orientation: Formazan colour is commonly taken as a measure of viable cells.
Data set [2] is described as follows: Cytotoxicity against human Huh7.5 cells.
The test system of data set [3] is Human coronavirus OC43. The data set can be described thus: microbe, parasite or virus in culture. As to conditions: Betacoronavirus 1, VR-1558, NCI-H460, 72 h.
Description: Antiviral activity against HCoV-OC43 VR-1558 infected in human NCI-H460 cells assessed as inhibition of viral growth incubated for 72 hrs by CCK-8 assay
A short description of a further data set: in vitro. The settings on record: human, NCI-H460 cells.
The nature of data set [4]: Cytotoxicity against human H9 cells.
The target in data set [5] is Replicase polyprotein 1ab (Severe acute respiratory syndrome coronavirus 2, UniProt P0DTD1).
Description: Binding affinity to CM5 sensor chip immobilized SARS-CoV-2 3CL protease assessed as dissociation constant by SPR analysis
Data set [6] relates to Human coronavirus OC43. The data set can be described thus: microbe, parasite or virus in culture. The settings on record: Betacoronavirus 1, A549, 96 h.
Description: Antiviral activity against HCoV-OC43 infected in human A549 cells assessed as inhibition of viral growth incubated for 4 days
A further data set relates to SARS-CoV-2. The data set can be described thus: microbe, parasite or virus in culture. The settings on record: Severe acute respiratory syndrome coronavirus 2, IC19/2020, Vero, 48 h.

Description for SARS-CoV-2: Antiviral activity against SARS-CoV-2 IC19/2020 infected in Vero cells assessed as inhibition of viral growth incubated for 48 hrs by plaque assay
Description for in vitro: Selectivity index, ratio of CC50 for cytotoxicity against human NCI-H460 cells to EC50 for antiviral activity against HCoV-OC43 VR-1558 infected in human NCI-H460 cells

`CN(C)C1CN(Cc2ccc(NC(=O)c3ccc(OCCCl)c([N+](=O)[O-])c3)cc2C(F)(F)F)C1` returned a 50% cytotoxic concentration (CC50) at 72 h in data set [1] of 19.2 µM. For the same molecule, in data set [2], the 50% cytotoxic concentration (CC50) came to 6.47 µM. In the data set on Human coronavirus OC43 [3], this molecule returned a concentration for a half-maximal effect (EC50) of 2.97 µM. For the same molecule, in “in vitro”, the selectivity ratio was 6.5.

Turning to `COc1ccc(C(=O)Oc2cc(OC)c(OC)c(OC)c2)cc1NC(=O)C(C)Br` (configuration not stated), the CC50 in data set [4] came out at 3.64 µM.

For `COc1ccc(C(=O)Nc2ccc(OC3CC(N(C)C)C3)cc2C(F)(F)F)cc1[N+](=O)[O-]` (configuration not stated), the half-maximal cytotoxic concentration (CC50) at 72 h in data set [1] came out at 99.5 µM. The molecule further displayed an EC50 with Human coronavirus OC43 [3] of 28.6 µM. For the same molecule, in the data set “in vitro”, the selectivity ratio came out at 3.

In data set [1], `CCOc1ccc(C(=O)Nc2ccc(CN3CC(N(C)C)C3)c(C(F)(F)F)c2)cc1[N+](=O)[O-]` had a CC50 at 72 h above 200 µM. In addition, the EC50 in the data set on Human coronavirus OC43 [3] came out at 1.85 µM. Further, in the data set “in vitro”, the selectivity ratio was above 108. In data set [5], this molecule displayed a Kd of 17.1 µM.

Regarding `Cc1ccc(NC(=O)c2ccc(CN3CCN(C)CC3)cc2)cc1Nc1nc(-c2cccnc2)cs1` [MASITINIB], in the data set on Human coronavirus OC43 [6], the response was half-maximal at 2.1 µM (EC50).

In data set [1], `CC(C)C(=O)OC[C@H]1O[C@@H](n2ccc(NO)nc2=O)[C@H](O)[C@@H]1O` [MOLNUPIRAVIR] displayed a CC50 at 72 h of 18.3 µM. In addition, the EC50 in the data set with Human coronavirus OC43 [3] came out at 0.18 µM. For the same molecule, the selectivity ratio in “in vitro” amounted to 102.

On to `O=C(Nc1ccc([N+](=O)[O-])cc1Cl)c1cc(Cl)ccc1O` [NICLOSAMIDE], for which the half-maximal effective concentration (EC50) with SARS-CoV-2 came out at 0.4 µM.

Usually CC50 stands for the concentration at which the toxic effect on the cells reaches its halfway point. A low value points to greater toxicity to the cells. The EC50 is the concentration at which the effect is half-maximal. What is called Kd is the free concentration of one partner at which half of the binding sites on the other are occupied at equilibrium, for simple one-to-one binding. Low readings indicate higher affinity, high ones lower affinity.
